Key:
[1] = test system: NIL B, SV-NIL and BALB/C 3T3 cells; assay: effectiveness as cell and tissue culture buffers (overall, cell lines tested); conditions: selected media; for effectiveness as culture buffer compared with HEPES: vs HEPES; for effectiveness as culture buffer compared with NaHCO3:CO2 system (control): vs NaHCO3:CO2 control
Description: The cell lines used in the tests were NIL B, a hamster fibroblast line; SV-NIL, an SV40-virus transformed line derived from NIL B; and BALB/C 3T3, a mouse embryo tissue. The cells were seeded into T-flasks (screw-capped polystyrene flasks) with a 25 cm^2 area. On the control flask (CO2 atmosphere), the cap was kept loose to allow gas circulation while the caps on the experimental culture flasks were screwed on tightly. The medium used in these tests was Eagle's MEM 4X (see pages 108-112 of Paul, Cell and Tissue Culture, 5th Edition, 1975), in an Earle's salt solution (page 95 of same text) modified to contain 2.2 g/l of bicarbonate for the experimental buffers. The control was not so modified. The control flask was incubated at 37° C. in an atmosphere of 5% CO2 in air whereas the other flasks were incubated at 37° C. in an air atmosphere. The medium was changed every other day.
At appointed times, triplicate flasks were harvested using trypsin, and the approximate cell population was determined using a Coulter electronic particle counter.

[2] = solubility of the zwitterion on acidification; format: physicochemical; conditions: acidified to pH 1.5 with HCl, water
[3] = use as buffer in biological research; cited from earlier work
[4] = cited from earlier work

SMILES	effectiveness as culture buffer compared with HEPES [1]	effectiveness as culture buffer compared with NaHCO3:CO2 system (control) [1]	also measured
O=S(=O)(O)CC(O)CN1CCN(CCO)CC1 (centres unmarked) [Example 3, N-hydroxyethyl piperazine-N'-2 hydroxypropyl sulfonic acid]	as good as, if not better than	as good as, if not better than	–
O=S(=O)(O)CC(O)CN1CCN(CC(O)CS(=O)(=O)O)CC1 (centres unmarked) [Example 4, Piperazine-N,N'-2-hydroxypropyl sulfonic acid (dihydrate)]	–	–	solubility [2]: very insoluble
O=S(=O)(O)CC(O)CN1CCOCC1 (centres unmarked) [Example 6, 3-(N-morpholino)-2-hydroxypropyl sulfonic acid]	about as good as	not as good as	–
NC(CO)(CO)CO [Tris, tris-(hydroxy-methyl)aminomethane]	–	–	inhibitory side effect [3]: often inhibitory; buffering capacity ([4]; below pH 7.5): poor buffering capacity; reactivity ([4]; primary aliphatic amine): considerable reactivity
